From patent publication US11572373B2, “Maytansinoid-based drug delivery systems” (LADRX CORPORATION, priority 2017, dated 2023)
Marks after values point to notes of the source that are not given here.

Key:
[1] = Stability and release kinetics of maytansinoid-HSA conjugates in buffer solution at pH 4.0 and pH 7.4; assay type: physicochemical; conditions: maytansinoid-HSA conjugate, PBS pH 7.4, 37° C.
Experimental: For preparing HSA conjugates of albumin-binding maytansinoids, HSA (200 μM: 361.8 μL, 1078 μM free Cys34; 100 μM: 180.9 μL, 1078 μM free Cys34) was diluted with PBS buffer (4 mM sodium phosphate, 150 mM NaCl, pH 7.4) (200 μM: 678.2 μL; 100 μM: 859.1 μL) and DMSO (200 μM: 130.0 μL; 100 μM: 195.0 μL) and incubated in a heating block at 37° C. for 30 minutes. The albumin-binding maytansinoid was added as a 2 mM stock solution in DMSO (200 μM: 130.0 μL; 100 μM: 65.0 μL) to the preincubated HSA sample to produce a 200 μM or 100 μM solution of maytansinoid-prodrug and 300 μM or 150 μM of free Cys34. The mixture having a pH of 7.4 was allowed to react for 10 min at 37° C. and was then analyzed hourly for 24 hours by RP-HPLC (Phenomenex Aeris WP XB-C18, 3.6 μm, 250×4.6 mm).
For studying the release kinetics at pH 4.0 the mixture was acidified with a mixture of 50 mM sodium acetate buffer pH 3.0 (200 μM: 119.3 μL; 100 μM: 125.2 μL) and 1 M HCl (200 μM: 12.7 μL; 100 μM: 6.8 μL) to reach pH 4.0. The mixture was subsequently analyzed hourly for 24 hours by RP-HPLC (Phenomenex Aeris WP XB-C18, 3.6 μm, 250×4.6 mm).
The following RP-HPLC conditions were used: Phenomenex Aeris WP XB-C18 3.6 μm, 250×4.6 mm; eluent A (100% 20 mM Tris buffer pH 8.0) and eluent B (90:10, MeCN: water) eluting with a gradient of eluent B (25% 0-0.5 min, 25-35% 0.5-2.5 min, 35-85% 2.5-16 min, 85-95% 16-17 min, 95% 17-20 min, 95-25% 20-25 min, 25% 25-30 min, flow rate 1.0 mL/min). Column oven temperature 37° C.; autosampler temperature 37° C.; 20 μL of injection volume.
To quantify the percentage of free drug released, standard curves of the free maytansinoids were prepared at different concentrations (200 μM, 100 μM, 50 μM, 25 μM and 12.5 μM). The area under the curve (AUC) was determined at 250 nm.

[2] = In vitro cytotoxicity in different cell lines using the CellTiter-Blue Cell Viability Assay; assay type: cell-based, human; conditions: Homo sapiens; geometric mean over the n cell lines tested, 96 h treatment, CellTiter-Blue; read-out: Geomean IC50
[3] = tested on: human tumor xenograft models; experiment: Antitumor activity in human tumor xenograft mice models; assay type: in vivo; conditions: five human tumor xenograft models in nude mice, i.v. on day 1, 8, 15, and 22
From the text: This included starting tumor volumes in the range of approximately 80-110 mm^3 but also initial starting tumor volumes of up to approximately 400 mm^3. Furthermore, in most cases therapy with albumin-binding maytansinoids 30 and 31 induced long-term remissions and a decrease in Relative Tumor Volume (RTV). […] Experimental procedure and the results in the tumor-bearing mice models are described in detail in Examples 11-19 and FIGS. 3-16.
Female immunodeficient NMRI nude mice, from Charles River, received unilateral tumor implants subcutaneously in the left flank while under isoflurane anesthesia with human cancer tumors until tumors were palpable and had reached a volume of 80-200 mm^3 (unless otherwise stated).
Animals were kept in cages, the temperature inside the cages maintained at 25±1° C. with a relative humidity of 45-65% and an air change rate in the cage of 60-fold per hour. They were kept under a 14 h light: 10 h dark, artificial light cycle. The animals were fed with autoclaved Teklad Global 19% Protein Extruded Diet (T.2019S.12) from Envigo RMS SARL and had access to sterile filtered and acidified (pH 2.5) tap water, which was changed twice weekly. Feed and water were provided ad libitum. […] Animals were routinely monitored twice daily on working days and daily on Saturdays and Sundays. […] Relative body weights (RBW) of individual animals were calculated by dividing the individual absolute body weight on day X (BWx) by the individual body weight on the day of randomization multiplied by 100%. The tumor volume was determined by a two-dimensional measurement with calipers on the day of randomization (day 0) and then twice weekly. Tumor volumes were calculated according to the following equation: Tumor Vol [mm^3]=1 [mm]×w^2 [mm^2]×0.5, where “1” is the length and “w” is width of the tumor. The relative volume of an individual tumor on day X (RTVx) was calculated by dividing the absolute individual tumor volume [mm^3] of the respective tumor on day X (Tx) by the absolute individual tumor volume of the same tumor on the day of randomization multiplied by 100%. […]

Row | SMILES | free maytansinoid after 24 h at pH 7.4 ([1]; measured at 200 μM) | further results
1 | COc1cc2cc(c1Cl)N(C)C(=O)C[C@H](OC(=O)CN(C)c1ccc(/C(C)=N/NC(=O)c3ccc(NC(=O)CCCCCN4C(=O)C=CC4=O)cc3S(=O)(=O)O)cc1)[C@]1(C)O[C@H]1[C@H](C)[C@@H]1C[C@@](O)(NC(=O)O1)[C@H](OC)/C=C/C=C(\C)C2 [Compound 40] | 8.9%* | –
2 | COc1cc2cc(c1Cl)N(C)C(=O)C[C@H](OC(=O)Cc1ccc(/C(C)=N/NC(=O)c3ccc(NC(=O)CCNC(=O)[C@H](CS(=O)(=O)O)NC(=O)CCCCCN4C(=O)C=CC4=O)cc3[N+](=O)[O-])cc1)[C@]1(C)O[C@H]1[C@H](C)[C@@H]1C[C@@](O)(NC(=O)O1)[C@H](OC)/C=C/C=C(\C)C2 [Compound 33] | 6.5%* | –
3 | COc1cc2cc(c1Cl)N(C)C(=O)C[C@H](OC(=O)CSc1ccc(/C(C)=N/NC(=O)c3ccc(NC(=O)CCCCCN4C(=O)C=CC4=O)cc3S(=O)(=O)O)cc1C)[C@]1(C)O[C@H]1[C@H](C)[C@@H]1C[C@@](O)(NC(=O)O1)[C@H](OC)/C=C/C=C(\C)C2 [Compound 39] | 9.6%* | –
4 | COc1cc2cc(c1Cl)N(C)C(=O)C[C@H](OC(=O)CSc1ccc(/C(C)=N/NC(=O)c3ccc(NC(=O)CCCCCN4C(=O)C=CC4=O)cc3S(=O)(=O)O)cc1)[C@]1(C)O[C@H]1[C@H](C)[C@@H]1C[C@@](O)(NC(=O)O1)[C@H](OC)/C=C/C=C(\C)C2 [Compound 37] | 3.9%* | –
5 | COc1cc2cc(c1Cl)N(C)C(=O)C[C@H](OC(=O)COc1cccc(/C(C)=N/NC(=O)c3ccc(NC(=O)CCNC(=O)[C@H](CS(=O)(=O)O)NC(=O)CCCCCN4C(=O)C=CC4=O)cc3[N+](=O)[O-])c1)[C@]1(C)O[C@H]1[C@H](C)[C@@H]1C[C@@](O)(NC(=O)O1)[C@H](OC)/C=C/C=C(\C)C2 [Compound 42] | – | free maytansinoid after 24 h at pH 7.4 ([1]; measured at 100 μM): 4.8%**
6 | COc1cc2cc(c1Cl)N(C)C(=O)C[C@H](OC(=O)CCc1ccc(/C(C)=N/NC(=O)c3ccc(NC(=O)CCCCCN4C(=O)C=CC4=O)cc3S(=O)(=O)O)cc1)[C@]1(C)O[C@H]1[C@H](C)[C@@H]1C[C@@](O)(NC(=O)O1)[C@H](OC)/C=C/C=C(\C)C2 [Compound 41] | 4.6%* | –
7 | COc1cc2cc(c1Cl)N(C)C(=O)C[C@H](OC(=O)Cc1ccc(/C(C)=N/NC(=O)c3ccc(NC(=O)CCCCCN4C(=O)C=CC4=O)cc3S(=O)(=O)O)cc1)[C@]1(C)O[C@H]1[C@H](C)[C@@H]1C[C@@](O)(NC(=O)O1)[C@H](OC)/C=C/C=C(\C)C2 [Compound 32] | 9.5%* | –
8 | COc1cc2cc(c1Cl)N(C)C(=O)C[C@H](OC(=O)CSc1ccc(/C(C)=N/NC(=O)c3ccc(NC(=O)CCCCCN4C(=O)C=CC4=O)cc3S(=O)(=O)O)cc1C(F)(F)F)[C@]1(C)O[C@H]1[C@H](C)[C@@H]1C[C@@](O)(NC(=O)O1)[C@H](OC)/C=C/C=C(\C)C2 [Compound 38] | 4.9%* | –
9 | COc1cc2cc(c1Cl)N(C)C(=O)C[C@H](OC(=O)[C@H](C)N(C)C(C)=O)[C@]1(C)O[C@H]1[C@H](C)[C@@H]1C[C@@](O)(NC(=O)O1)[C@H](OC)/C=C/C=C(\C)C2 [Maytansine, maytansine, reference compound] | – | IC50 [2]: 0.22 nM; antitumor activity [3]: principally inactive in the tested models or only showed marginal tumor inhibition
10 | COc1cc2cc(c1Cl)N(C)C(=O)C[C@H](OC(=O)COc1ccc(/C(C)=N/NC(=O)c3ccc(NC(=O)CCCCCN4C(=O)C=CC4=O)cc3S(=O)(=O)O)cc1)[C@]1(C)O[C@H]1[C@H](C)[C@@H]1C[C@@](O)(NC(=O)O1)[C@H](OC)/C=C/C=C(\C)C2 [Compound 36] | 4.7%* | –
